Source: US4272507A, “Phenylaminothiophenacetic acids, their synthesis, compositions and use” (priority 1978, dated 1981)
Read-outs that look alike come from different tables or passages of the source.

Legend:
[1] = test system: formation of granulation tissue after subcutaneous implantation of cotton; assay: Chronic antiphlogistic action: cotton pellet test (formation of granulation tissue) in rats; details: rats; for Therapeutic quotient LD50/ED20: cotton pellet test, LD50 7 days oral; for Inhibition of the formation of granulation tissue after treatment for 7 days: sodium salt
Procedure: (§1) Biol. Med., 111 (1962) 544]}, on chronic inflammatory processes {Cotton pellet test on rats [Winter et al.: J. Pharmacol. exp. Therap., 141 (1963) 369]} and on adjuvant arthritis [based on the method of Perrine et al., Brit. J. Pharmacol., 21 (1963) 127] is determined.
Experimental procedure for investigating the influence of the compounds to be tested on the formation of granulation tissue after implantation of cotton in rats (so-called cotton pellet method):
1 cotton pellet (manufacturer: Messrs. Hartmann/Heidenheim; cotton pellets size 2, No. 4865/2) which weighs 13.0±0.5 mg and has been impregnated beforehand with 0.1 ml of a solution of 0.5 mg of penicillin G and 0.8 mg of streptomycin sulfate/1 ml of distilled water is in each case implanted subcutaneously into the shoulder-blade region, on both sides, of male Sprague-Dawley rats (groups of 8 animals each; weight of each animal: 150 to 170 g) under diethyl ether anaesthesia and under sterile conditions. The cut skin is closed by means of clamps.
The compounds to be tested (in the form of the sodium salt in aqueous solution) or the corresponding amount (5 ml/kg/day) of tapwater (=control group) are administered orally each day on seven successive days. On the eighth day, the animals are killed and the cotton granules are exposed carefully, that is to say preserving the fibrous tissue capsule, dried (15 hours at 120°) and weighed. By substracting the weight of the cotton pellets, the amount of newly formed granulation tissue is obtained.
The percentage reduction in the average granuloma dry weight of a treated group compared with the control group (=100%) serves as a measure of the antiproliferative action of a compound.

[2] = test system: yeast-induced fever in rats; assay: Antipyretic action: yeast-induced fever in rats; assay type: in vivo, rats (female Sprague-Dawley); details: for ED (1.5 degC): Rattus norvegicus, po, read-out: ED1.5 (dose which causes a maximum reduction in yeast-induced fever of 1.5° C.); for Therapeutic quotient LD50/ED2.5: yeast-induced fever, LD50 7 days
Procedure: The antipyretic action is determined by the influence of the compounds to be tested on yeast-induced fever in rats.
Hyperthermia is produced in female Sprague-Dawley rats (in groups of 5 animals; weight of each animal: 160 to 180 g) by subcutaneous injection (neck) of 10 ml/kg of a 20 percent strength aqueous brewer's yeast suspension (brewer's yeast "Heliosan"/Hefereformwerk Radolfzell). 24 hours after the yeast injection, the compounds to be tested are administered orally to the animals in a volume of liquid of 5 ml/kg, and a control group receives the corresponding amount of tapwater. The feed (Altromin®R, water ad libitum) was withdrawn from the rats 18 hours beforehand. The rats are kept at about 23° C.
The body temperature is recorded 1 hour before administration of the substance and at hourly intervals after administration of the substance.
[…] The body temperature is measured with a temperature probe (Tastomed H, Braun electronic).

[3] = in vivo; details: rat, po
[4] = test system: rats; details: 7 days (Table 6)
[5] = test system: carrageenin edema of the hind paw of rats; assay: Acute antiphlogistic action: carrageenin edema of the hind paw of rats after single oral administration; details: for ED50: Rattus norvegicus, po, read-out: ED50 (dose which causes a maximum edema inhibition of 50%); for Therapeutic quotient LD50/ED50: carrageenin edema, LD50 7 days oral; for Therapeutic quotient LD50/ED50 / Maximum inhibition of carrageenin edema within 7 hours after oral administration: rats
Procedure: as §1
The influence of the compounds to be tested on carrageenin edema of the hind paw of rats was determined as follows:
The rats are kept at 24° C.
The paw volume of each rat is determined (2 to 3 individual measurements in each case) before edema provocation and at hourly intervals for 7 hours after edema provacation. The average percentage paw swelling of each treated group determined at the specified times after the carrageenin injection is related to that of the untreated control group (=100%).
The maximum percentage edema inhibition serves as a measure of the antiphlogistic action.
The paw volume is determined plethysmometrically. Measuring principle: the volume of liquid displaced through the paw of the rat is recorded digitally via an electromechanical pressure transducer (Statham P 23 V, 0-200 mm Hg).
The doses indicated for the compounds tested were administered in a volume of liquid of 20 ml/kg.

[6] = test system: pain reaction provoked in rats by bending an inflamed ankle (AgNO3 arthritis); assay: animal or person; assay type: in vivo
Procedure: Based on the method of HOFFMEISTER et al. [Arzneim. Forsch., 24, (1974) 600], 0.2 ml of a 1% strength silver nitrate solution is injected into the ankle joint (inside) of the right hind paw of female Sprague-Dawley rats (each animal weighing about 160 to 180 g) under ether anaesthesia. The animals are kept at 24° C. and are fed Altromin®R and water ad libitum. After the AgNO3 injection, almost all the animals (90 to 95%) can be made to cry out by moderate bending of the ankle joint. All the animals reacting positively are collected into groups of 10 animals. The compounds to be tested are administered orally in a volume of liquid of 10 ml/kg immediately after administration of the AgNO3; the untreated control animals receive the corresponding amount of tapwater.
Over a period of 4 hours after administration of the substance, the number of animals reacting is determined at half hourly intervals.
The maximum percentage of the protected animals over a period of 4 hours after administration of the substance [relative to the number of animals in the control group reacting (=100%)] serves as a measure of the analgesic action.

[7] = versus phenylbutazone; Alpermann 1970, 1972; cited from earlier work
[8] = test system: adjuvant arthritis in rats; assay: Antiarthritic action: adjuvant arthritis in rats (Mycobacterium butyricum)
Procedure: as §1
The influence of the compounds to be tested on polyarthritis in rats caused by Mycobacterium butyricum (so-called "adjuvant arthritis") was determined using the experimental arrangement hereafter described: based on the method described by NEWBOULD and PERRINE et al. [NEWBOULD, B. B.; Brit. J. Pharmacol. 21, 127 (1963); and PERRINE, J. W. and TAKESUE, E. I.; Arch. int. Pharmacodyn., 174, 192 to 198 (1968)], so-called adjuvant arthritis, which manifests itself chiefly in a severe swelling of the tail (primary lesion) and of the paws (secondary lesion), is caused in rats by intradermal injection of a Mycobact. butyricum suspension in liquid paraffin into the base of the tail. Antiphlogistic agents inhibit this swelling reaction.

[9] = rats, single oral dose 0.3 mg/kg
[10] = AgNO3 arthritis pain, LD50 7 days oral, rats

Structure (SMILES)	ED (1.5 degC) ([2]; rats, perorally, single dose) [mg/kg]	Maximum reduction in yeast-induced fever over a period of 7 hours [2, 9] [°C]	Therapeutic quotient LD50/ED2.5 ([2]; rats)	LD50 at 168 h [3] [mg/kg]	ED50 [5] [mg/kg]	Therapeutic quotient LD50/ED50 [5]	Maximum inhibition of carrageenin edema within 7 hours after oral administration ([5]; single oral dose 3.0 mg/kg) [%]	also measured
Cc1ccc(Cl)c(Nc2cscc2CC(=O)O)c1Cl [Compound 5, 4-(2,6-dichloro-3-methylanilino)-3-thiophenacetic acid]	< 0.3	1.7	> 26.7	8	–	–	–	Therapeutic quotient LD50/ED20 [1]: 5; Inhibition of the formation of granulation tissue after treatment for 7 days ([1]; 7 x 1.0 mg/kg/day orally): 16%; Inhibition of the formation of granulation tissue after treatment for 7 days ([1]; 7 x 3.0 mg/kg/day orally): 26%
Cc1cccc(C)c1Nc1cscc1CC(=O)O [Compound 9, 4-(2,6-dimethylanilino)-3-thiophenacetic acid]	0.3	1.5	> 100	> 30	–	–	–	Therapeutic quotient LD50/ED20 [1]: > 10; Inhibition of the formation of granulation tissue after treatment for 7 days ([1]; 7 x 3.0 mg/kg/day orally): 19%; LD50, lethal action after administration for 7 days [4]: > 30 mg/kg/day; Maximum reduction in yeast-induced fever over a period of 7 hours ([2]; rats, single oral dose 0.1 mg/kg): 1.0 °C; Maximum reduction in yeast-induced fever over a period of 7 hours ([2]; rats, single oral dose 1 mg/kg): 2.3 °C
O=C(O)Cc1cscc1Nc1c(F)cccc1F [Compound 12, 4-(2,6-difluoroanilino)-3-thiophenacetic acid]	0.9	0.5	> 33	> 30	–	–	–	Maximum reduction in yeast-induced fever over a period of 7 hours ([2]; rats, single oral dose 1 mg/kg): 1.6 °C
O=C(O)Cc1sccc1Nc1c(Cl)cccc1Cl [Compound 6, 3-(2,6-dichloroanilino)-2-thiophenacetic acid]	< 0.3	1.7	> 66.7	> 20	~3	> 6.7	52	LD50, lethal action after administration for 7 days [4]: > 20 mg/kg/day
Cc1c(Cl)cccc1Nc1cscc1CC(=O)O [Compound 8, 4-(3-chloro-2-methylanilino)-3-thiophenacetic acid]	–	–	–	> 30	~3	> 10	49	–
O=C(O)c1cscc1Nc1c(Cl)cccc1Cl [Compound 1, 3-(2,6-dichloroanilino)thiophen-4-carboxylic acid]	8.2	–	–	120	56	2.1	–	Therapeutic quotient LD50/ED50 [6, 10]: 0.86; therapeutic quotient LD50/ED25 [6, 10]: 4; ED25 ([6]; Rattus norvegicus, po, read-out: ED25 (dose which completely suppresses the pain reaction in 25% of the animals)): 30 mg/kg; ED50 ([6]; Rattus norvegicus, po, rats, perorally, at the time of maximum action, read-out: ED50 (dose which completely suppresses the pain reaction in 50% of the animals)): 140 mg/kg; Inhibition of the pain reaction ([6]; rats, single oral dose 3 mg/kg): 10%; Inhibition of the pain reaction ([6]; rats, single oral dose 20 mg/kg): 20%; Inhibition of the pain reaction ([6]; rats, single oral dose 100 mg/kg): 40%; Inhibition of the pain reaction ([6]; rats, single oral dose 200 mg/kg): 60%; actions [7]: superior to those of phenylbutazone; ED25 ([8]; Rattus norvegicus, po, 120 h, read-out: ED25 (inhibition of adjuvant arthritis of 25%)): 9 mg/kg/day; therapeutic quotient LD50/ED25 ([8]; adjuvant arthritis, LD50 7 days oral, rats): 13.3; Maximum inhibition of carrageenin edema within 7 hours after oral administration ([5]; single oral dose 10.0 mg/kg): 31%; Maximum inhibition of carrageenin edema within 7 hours after oral administration ([5]; single oral dose 100.0 mg/kg): 57%; Maximum reduction in yeast-induced fever over a period of 7 hours ([2]; rats, single oral dose 1 mg/kg): 0 °C; Maximum reduction in yeast-induced fever over a period of 7 hours ([2]; rats, single oral dose 3 mg/kg): 0.6 °C; Maximum reduction in yeast-induced fever over a period of 7 hours ([2]; rats, single oral dose 10 mg/kg): 1.7 °C; Maximum reduction in yeast-induced fever over a period of 7 hours ([2]; rats, single oral dose 30 mg/kg): 2.1 °C
O=C(O)Cc1csc(Cl)c1Nc1c(Cl)cccc1Cl [Compound 10, 5-chloro-4-(2,6-dichloroanilino)-3-thiophenacetic acid]	–	1.2	–	–	–	–	–	ED (1.5 degC) [2]: 0.5 mg/kg; Maximum reduction in yeast-induced fever over a period of 7 hours ([2]; rats, single oral dose 0.6 mg/kg): 1.6 °C
Cc1cccc(Nc2cscc2CC(=O)O)c1Cl [Compound 7, 4-(2-chloro-3-methylanilino)-3-thiophenacetic acid]	–	–	–	> 20	–	–	–	Therapeutic quotient LD50/ED20 [1]: > 5.7; Inhibition of the formation of granulation tissue after treatment for 7 days ([1]; 7 x 3.0 mg/kg/day orally): 19%; Inhibition of the formation of granulation tissue after treatment for 7 days ([1]; 7 x 10.0 mg/kg/day orally): 27%
Cc1c(Cl)cccc1Nc1cscc1C(=O)O [2-methyl-3-chlorophenyl derivative]	–	–	–	–	–	–	–	actions [7]: superior to those of phenylbutazone
Cc1cccc(Cl)c1Nc1cscc1CC(=O)O [Compound 4, 4-(2-chloro-6-methylanilino)-3-thiophenacetic acid]	~0.3	1.4	> 66.7	> 20	3	> 6.7	50	LD50, lethal action after administration for 7 days [4]: > 20 mg/kg/day
Cc1cccc(Cl)c1Nc1ccsc1CC(=O)O [Compound 11, 3-(2-chloro-6-methylanilino)-2-thiophenacetic acid]	–	–	–	> 20	~3	> 6.7	49	–
Cc1cccc(Nc2cscc2C(=O)O)c1Cl [2-chloro-3-methylphenyl derivative]	–	–	–	–	–	–	–	actions [7]: superior to those of phenylbutazone
